Test results: US9321745B2, “Inhibition of neovascularization by inhibition of prostanoid IP receptors” (ALLERGAN, INC., priority 2013, dated 2016)

How the values were obtained:
[1] = tested on: laser-induced choroidal neovascularization (CNV); test: Laser-induced model of choroidal neovascularization (CNV); format: in vivo
Procedure: A laser-induced model of CNV was employed, as known in the art, to determine whether blockade of IP receptors alone is sufficient to inhibit CNV. See e.g., Francois et al., 1975, Am. J. Ophthalmol. 79:206-210; Edelman & Castro, 2000, Exp. Eye Res. 71:523-533; Goody, R. J., et al., 2011, Exp. Eye. Research 92:464-472. Test rats were administered laser treatment after which vehicle (50% propylene glycol in H2O) or IP receptor antagonist Formula II was administered. The area of subsequently identified CNV was quantified by methods known in the art. […] Moreover, as depicted in FIG. 2C, the area of CNV was reduced on a per lesion basis.

[2] = target: T1, IP receptor (Homo sapiens, UniProt P43119); test: Inhibition of 100 nM cicaprost-induced VEGF secretion in TNFα-stimulated human macrophages; format: cell-based; conditions: TNFα-stimulated human macrophages from two individual donors, FIG. 1B
T1 construct: endogenous in cells; host or cells: TNFα-stimulated human macrophages from individual donors
T1 sequence (P43119 whole entry): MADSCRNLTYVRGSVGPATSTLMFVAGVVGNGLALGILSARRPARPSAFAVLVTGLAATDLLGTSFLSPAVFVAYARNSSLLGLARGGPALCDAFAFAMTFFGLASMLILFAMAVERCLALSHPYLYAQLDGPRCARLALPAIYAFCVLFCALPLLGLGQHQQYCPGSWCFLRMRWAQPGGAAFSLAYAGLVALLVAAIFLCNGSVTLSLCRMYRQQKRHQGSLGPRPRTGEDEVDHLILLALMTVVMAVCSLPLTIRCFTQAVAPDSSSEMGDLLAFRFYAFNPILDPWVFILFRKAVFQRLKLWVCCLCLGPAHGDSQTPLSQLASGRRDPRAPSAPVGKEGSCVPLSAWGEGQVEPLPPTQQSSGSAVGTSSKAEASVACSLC
Text: (§1) A TNFα-stimulated human macrophage system was employed, as known in the art, to assess the effect of IP receptor agonist and IP receptor antagonist on induction of VEGF secretion.
In order to test whether a IP receptor antagonist can reverse the effect of cicaprost-induced VEGF secretion in TNFα-stimulated human macrophages, the IP receptor antagonist Formula I was employed.

[3] = target: T1, IP receptor; test: Cicaprost-induced VEGF secretion in TNFα-stimulated human macrophages; format: cell-based; conditions: FIG. 1A
Text: as §1

**Q.** `O=C(N[C@@H](Cc1ccc(F)cc1)C(=O)O)OCc1cc2cc(-c3cccc(F)c3)ccc2o1` [Formula II] was tested. Which “area of CNV per test subject (rat vs. rat)” value ([1]; after laser treatment, vs vehicle 50% propylene glycol in H2O, n=6, FIG. 2A) did it give?
**A.** The value was “significantly reduced”.

**Q.** And the “area of CNV, comparison of each eye (eye vs. eye)” value ([1]; rat, after laser treatment, vs vehicle, n=12, FIG. 2B)?
**A.** The value was “reduced”.

**Q.** What about the “area of CNV on a per lesion basis (lesion vs. lesion)” value ([1]; rat, after laser treatment, vs vehicle, n=38, FIG. 2C) of the same compound?
**A.** The value was “reduced”.

**Q.** What about the “inhibition of laser-induced choroidal neovascularization (CNV)” value ([1]; rat, FIG. 2 overall, vs vehicle 50% propylene glycol in H20) of the same compound?
**A.** Its value is “sufficient to inhibit laser-induced choroidal neovascularization”.

**Q.** With `CC(C)Oc1ccc(Cc2ccc(NC3=NCCN3)cc2)cc1` [Formula I] as the compound, how does the “inhibition of cicaprost-induced VEGF secretion” value [2] read?
**A.** The value was “dose dependently inhibits”.

**Q.** With `CCC#CC[C@H](C)[C@H](O)C#C[C@@H]1[C@H]2C/C(=C/COCC(=O)O)C[C@H]2C[C@H]1O` [cicaprost] as the compound, how does the “induction of VEGF secretion” value [3] read?
**A.** The value was “dose dependently induces VEGF secretion”.
